Counter-ions that a name gives are not always drawn. Like-named read-outs stand apart in the source and are kept apart here.
Columns and labels:
[1] = system: allergic reaction of the delayed type in mice; assay: delayed-type (contact) hypersensitivity reaction to dinitrochlorobenzene, ear thickness in mice; assay type: in vivo, CBA mice; conditions: for Ear thickness, Control, Average value / Ear thickness, Control, Range of fluctuations: control (right) ear; for Ear thickness, Experiment, Average value / Ear thickness, Experiment, Range of fluctuations: test (left) ear
[2] = system: delayed-type hypersensitivity reaction; assay: delayed-type hypersensitivity reaction to 2,4-dinitrochlorobenzene in guinea pigs; assay type: in vivo
[3] = system: delayed-type hypersensitivity reaction; assay: delayed-type hypersensitivity reaction to rat's thymocytes in mice (popliteal lymph nodes); assay type: in vivo; conditions: for effect on the development of the delayed-type hypersensitivity reactions: Table 3 (mice and guinea pigs)
human tonsillocytes [4] = assay: natural cytotoxicity (natural killers) of human tonsillocytes, 51Cr release; assay type: cell-based; conditions: for Yield of 51Cr from target cells, natural cytotoxicity, average value: (III) significant P below 0.05
Excerpt: (§1) The cytolytic effect of tonsillocytes was studied by the radioisotope method using Cr^51. On doing so, the deterioration of target cells (chicken's erythrocytes) by tonsil lymphocytes was regarded as spontaneous cytolysis, while the destruction of the target cells loaded, in addition to the isotopic tracer, with homologous antibodies in the sublytic dose was considered as antibody-dependent cytolysis. […] Afterwards they were twice washed by means of Medium 199 using centrifugation (105 g, 10 minutes). […] The degree of destruction of the target cells was determined radiometrically by the outcome of Cr^51 into the liquid phase.

human tonsillocytes [5] = assay: antibody-dependent cytotoxicity of human tonsillocytes, 51Cr release; assay type: cell-based
Excerpt: as §1, with “On this basis, the effect of one of the lest toxic compound (III) out of those of the present invention was studied for the antibody-dependent cytolytic activity of cells. […] The cytolytic” for “The cytolytic”

splenocytes = assay: effect on cyclic nucleotides (c-AMP, c-GMP) and phosphodiesterase of c-AMP; assay type: cell-based
[6] = system: virus of vesicular stomatitis; assay type: cell-based
[7] = system: Staphylococcus aureus, Proteum, Bacillus pyocyanes; assay: antibacterial activity in vitro, serial dilutions; assay type: cell-based; conditions: relative to compound (II)
Procedure: In the experiments in vitro the antibacterial activity of the compounds of the present invention was studied. To this end, serial dilutions of compounds (II) and (III) with a concentration of from 1% to 0.00001% were prepared and 0.1 ml of a microbal suspension was added thereto (Staphylococcus aureus, Proteum, Bacillus pyocyanes). The microbal load for staphylococcus was about 1×10^5 cells/ml, for Proteum and Bacillus pyocyanes -1×10^4 c cells/ml. […] The bacteria were incubated along with the compounds according to the present invention at the temperature of 37° C. […] Inoculations were effected by spreading 0.1 ml of a suspension of bacteria in a corresponding dilution of the compounds over the surface of an agar dish using a glass spatula.

immune system = conditions: prior art; cited from earlier work
[8] = prior art, hydrochloride, cited from earlier work
[9] = system: IgE antibodies in respiratory organs
Procedure: The local production of IgE-antibodies in trachea and lungs of rats of the lines WAY, August with a mass of 250-300 g was induced by means of a successive (with the interval of 40 minutes) dropping a 0.1% solution of histamine and ambrosia allergen (10,000 PNU/ml) into both nasal passages. […] One day after the administration of the allergen IgE-antibodies were determined in homogenates of trachea and lungs prepared at the rate of 0.1 ml of a physiological solution per 10 mg of the tissue by the method of indirect degranulation of obese cells.

[10] = second levamizole line, printed 2.5 mg/kg
[11] = 100 μg/ml, negative = test value exceeded the control
[12] = 100 μg/ml, certainty: (II), (III) below 0.05, (I), levamizole above 0.05
[13] = 500 μg/ml, certainty: all below 0.05

## c1ccc([C@H]2CN3CCSC3=N2)cc1 [levamizole, L-(-)-2,3,5,6-tetrahydro-6-phenylimidazo-[2,1-b]-thiazole hydrochloride, reference compound]
[1]; 2.5 mg/kg per os
  Ear thickness, Control, Average value: 162.3 μm
  Ear thickness, Control, Range of fluctuations: 130-200 μm
  Ear thickness, Experiment, Average value: 210.0 μm
  Ear thickness, Experiment, Range of fluctuations: 160-280 μm
[1]; per os
  dose inhibiting the development of the contact hypersensitivity: 25 mg/kg
[1]; [10]
  Ear thickness, Control, Average value: 179.2 μm
  Ear thickness, Control, Range of fluctuations: 160-190 μm
  Ear thickness, Experiment, Average value: 179.2 μm
  Ear thickness, Experiment, Range of fluctuations: 170-190 μm
[2]; [11]
  Difference in temperature of the pad surfaces, Average value: -1.3 ± 0.06 °C
  Difference in thickness of control and test talipes, Average value: -0.75 ± 0.08 mm
[2]; 1,000 μg/ml
  Difference in temperature of the pad surfaces, Average value: +1.1 ± 0.11 °C
  Difference in thickness of control and test talipes, Average value: +0.51 ± 0.064 mm
[3]; 100 μg/ml
  effect on the development of the delayed-type hypersensitivity reactions: surely stimulates
[3]; [11]
  Difference in masses of popliteal lymph nodes in the control and test limb, Average value: -0.9 ± 0.13 mg
[3]; 500 μg/ml
  Difference in masses of popliteal lymph nodes in the control and test limb, Average value: +1.0 ± 0.13 mg
[3]; 1,000 μg/ml
  Difference in masses of popliteal lymph nodes in the control and test limb, Average value: +1.2 ± 0.12 mg
[3]; 500 and 1,000 μg/ml
  effect on the development of the delayed-type hypersensitivity reactions: effectively inhinits
Human tonsillocytes [4]; 1 μg/ml
  Yield of 51Cr from target cells, natural cytotoxicity, range of fluctuations: 3.0-41.0%
  Yield of 51Cr from target cells, natural cytotoxicity, average value: 16.2%
Human tonsillocytes [4]; 10 μg/ml
  Yield of 51Cr from target cells, natural cytotoxicity, range of fluctuations: 5.0-53.0%
  Yield of 51Cr from target cells, natural cytotoxicity, average value: 18.4%
Human tonsillocytes [4]; 100 μg/ml
  Yield of 51Cr from target cells, natural cytotoxicity, range of fluctuations: 5.0-49.0%
  Yield of 51Cr from target cells, natural cytotoxicity, average value: 20.5%
Human tonsillocytes [4]; levamizole
  activity of natural killers of tonsil cells: not noticeably changed
Human tonsillocytes [5]; 1 μg/ml
  Yield of 51Cr from target cells, antibody dependent cytotoxicity, range of fluctuations: 1.0-32.0%
Human tonsillocytes [5]; 1 μg/ml, (III) significant P below 0.05
  Yield of 51Cr from target cells, antibody dependent cytotoxicity, average: 14.0%
Human tonsillocytes [5]; 10 μg/ml
  Yield of 51Cr from target cells, antibody dependent cytotoxicity, range of fluctuations: 1.0-36.0%
Human tonsillocytes [5]; 10 μg/ml, (III) significant P below 0.05
  Yield of 51Cr from target cells, antibody dependent cytotoxicity, average: 14.2%
Human tonsillocytes [5]; 100 μg/ml
  Yield of 51Cr from target cells, antibody dependent cytotoxicity, range of fluctuations: 8.0-39.0%
Human tonsillocytes [5]; 100 μg/ml, levamizole significant P below 0.05
  Yield of 51Cr from target cells, antibody dependent cytotoxicity, average: 22.8%
Human tonsillocytes [5]; Homo sapiens, read-out: concentration stimulating the antibody-dependent cytolytic activity
  minimal effective concentration: 100 µg/mL
splenocytes
  concentrations of c-AMP and c-GMP: reciprocal variations of concentrations of c-AMP and c-GMP
[6]; 1 μg/ml
  Degree of inhibition of the virus reproduction: 0 times
[6]; 10 μg/ml
  Degree of inhibition of the virus reproduction: 10 times
[7]
  antibacterial activity lower by a factor of: 2
Immune system
  effect in respect of various immunological responses: stimulating effect in respect of various immunological responses
[8]
  toxicity and side effects: high toxicity and a high frequency of the observed side effects
[8]; listed as Levamizole
  toxicity and side effects: toxic and has diverse side effects
[9]; [12]
  Percent of degranulated mastocytes, Lungs: 18.1 ± 1.9%
  Percent of degranulated mastocytes, Trachea: 17.3 ± 1.8%
[9]; [13]
  Percent of degranulated mastocytes, Lungs: 6.1 ± 1.1%
  Percent of degranulated mastocytes, Trachea: 7.4 ± 0.2%
[9]; rat, in vivo
  concentration inhibiting the formation of the IgE-antibodies in the respiratory organs: 500 µg/mL
